# Experimental data as given in ChEMBL document CHEMBL5053500, “Nitric Oxide Induction in Peritoneal Macrophages by a 1,2,3-Triazole Derivative Improves Its Efficacy upon Leishmania amazonensis In Vitro Infection” (J Med Chem, 2021).
# Active and inactive are the calls of the source. The rule behind the calls is not given here.
# Tests used:
# [1] = Cytotoxicity against BALB/c mouse peritoneal macrophages assessed as reduction in cell viability incubated for 24 hrs by MTT assay; type: cell-based, Peritoneal macrophage
# [2] = Cytotoxicity against human CCD-1072Sk cells assessed as reduction in cell viability measured after 24 hrs by MTT assay; type: cell-based
# [3] = Selectivity index, ratio of CC50 for cytotoxicity against BALB/c mouse peritoneal macrophage to IC50 for antileishmanial activity against Leishmania amazonensis (MHOM/BR/76/MA-76) intracellular amastigotes infected in BALB/c mouse peritoneal macrophages; type: toxicity, cell-based; conditions: read-out: Ratio CC50/IC50
# [4] = tested on: Leishmania amazonensis; assay: Antileishmanial activity against Leishmania amazonensis (MHOM/BR/76/MA-76) promastigotes assessed as upward shift in concentration response curves of parasite viability incubated for 24 hrs by MTT assay; type: functional, organism-based
# [5] = tested on: Leishmania amazonensis; assay: (§1) Antileishmanial activity against Leishmania amazonensis (MHOM/BR/76/MA-76) intracellular amastigotes infected in BALB/c mouse peritoneal macrophages assessed as low amastigote mean at 5 to 40 uM incubated for 24 hrs by Giemsa's azur-eosin-methyle blue staining based light microscopy analysis; type: functional, organism-based; conditions: Peritoneal macrophage, dose 5-40 µM
# [6] = tested on: Leishmania amazonensis; assay: Antileishmanial activity against Leishmania amazonensis (MHOM/BR/76/MA-76) intracellular amastigotes infected in BALB/c mouse peritoneal macrophages assessed as reduction in parasite growth incubated for 24 hrs by Giemsa's azur-eosin-methyle blue staining based light microscopy analysis; type: functional, organism-based; conditions: MHOM/BR/76/MA-76, Peritoneal macrophage
# [7] = tested on: Leishmania amazonensis; assay: Antileishmanial activity against Leishmania amazonensis (MHOM/BR/76/MA-76) intracellular amastigotes infected in BALB/c mouse peritoneal macrophages assessed as upward shift in concentration response curves of parasite viability incubated for 24 hrs by Giemsa's azur-eosin-methyle blue staining based light microscopy analysis; type: functional, organism-based; conditions: Peritoneal macrophage
# [8] = tested on: Leishmania amazonensis; assay: Antileishmanial activity against Leishmania amazonensis (MHOM/BR/76/MA-76) promastigotes assessed as reduction in parasite growth incubated for 24 hrs by MTT assay; type: functional, organism-based; conditions: MHOM/BR/76/MA-76, 24 h
# [9] = tested on: Leishmania amazonensis; assay: as §1, with “decrease in number of amastigotes per 100 cells” for “low amastigote mean”, “10” for “5”; type: functional, organism-based; conditions: Peritoneal macrophage, dose 10-40 µM
# [10] = tested on: Leishmania amazonensis; assay: as §1, with “decrease in number of amastigotes per infected cells” for “low amastigote mean”, “20” for “5”; type: functional, organism-based; conditions: Peritoneal macrophage, dose 20-40 µM
# [11] = Selectivity index, ratio of CC50 for cytotoxicity against BALB/c mouse peritoneal macrophages to IC50 for antileishmanial activity against Leishmania amazonensis (MHOM/BR/76/MA-76) promastigotes; type: toxicity; conditions: read-out: Ratio CC50/IC50
# [12] = Cytotoxicity against human CCD-1072Sk cells assessed as reduction in cell viability at <400 uM measured after 24 hrs by MTT assay; type: cell-based
SMILES,CC50 at 24 h [1] [µM],CC50 at 24 h [2] [µM],selectivity ratio [3],Activity [4],Activity [5],IC50 [6] [µM],Activity [7],IC50 [8] [µM],Activity [9],Activity [10],selectivity ratio [11],Activity [12]
CCCCCCCCCCCCCCCCOP(=O)([O-])OCC[N+](C)(C)C [MILTEFOSINE],169,191,33.2,Active,Active,5.11,Active,8.02,Active,Active,21.1,–
O=c1ccc2cc(-n3cc(C(O)c4ccccc4Br)nn3)ccc2o1 (stereo unspecified),348,–,–,–,–,–,–,81.4,–,–,4.27,Non-Toxic
OC(c1cn(-c2ccc(Br)cc2)nn1)c1ccccc1Br (stereo unspecified),313,–,–,–,–,–,–,> 200,–,–,< 1.56,Non-Toxic
OC(c1ccccc1)c1cn(-c2ccc(Br)cc2)nn1 (stereo unspecified),> 400,–,–,–,–,–,–,> 200,–,–,> 2,Non-Toxic
COC(=O)c1ccc(-n2cc(C(O)c3cccnc3-c3ccccc3)nn2)cc1 (stereo unspecified),> 400,–,–,–,–,–,–,95.9,–,–,> 4.17,Non-Toxic
OC(c1cn(-c2ccc(Br)cc2)nn1)c1ccccc1F (stereo unspecified),> 400,–,–,–,–,–,–,110,–,–,> 3.62,Non-Toxic
